Laboratory results taken from patent US10603289B2, “Process for the manufacture of ajoene derivatives” (DANMARKS TEKNISKE UNIVERSITET, priority 2010, dated 2020).

Tests used:
[1] = system: rhamnolipid production of planktonic grown P. aeruginosa; experiment: Rhamnolipid concentration in cultures quantified by LC-MS; type: cell-based; details: for rhamnolipid content: OD=1.5 (FIG. 4)
Description: Samples retrieved at OD600=1.5 (dark grey bars), and at OD600=2.0 (light grey bars). Data represent the average of tree individual experiments. Error bars are mean±SD.
To exemplify the actual efficacy of ajoene in inhibiting synthesis of one of the major virulence factors, the concentration of rhamnolipid present in the cultures grown for DNA array and RT-PCR where directly quantified by LC-MS. The production of rhamnolipids is initiated early in stationary phase co-ordinately regulated by the Rhl QS system encoded by the rhlA, rhlB and rhlC genes (PA3479, PA3478 and PA1131) [V. E. Wagner et al., J Bacteriol., 2003, 185, p. 2080-2095 and R. Rahim et al., Mol Microbiol., 2001, 40, p. 708-718]. Samples where therefore retrieved at an OD600 nm of 1.5 and 2.0 to monitor rhamnolipid production before and after the synthesis was fully initiated. […] This concentration therefore almost completely blocks rhamnolipid synthesis. (E,Z) ajoene having an E:Z ratio of 1:4 was used.

P. aeruginosa PAO1 = type: in vivo
Experimental: Mice were sacrificed on day one or day three post-infection and the contents of bacteria in the lungs were determined. Open squares indicate bacterial lung content per lung for each individual mouse. The median values are indicated with a filled black square. The statistic significance of difference in clearance was tested by a Mann-Whitney U test (analysis of nonparametric data) and p-values for the difference at day one and day three were 0.9 and 0.002 respectively.
In this study ajoene was administered prophylactic and subsequently continued after infection. Injections were given subcutaneous in the peritoneum. We performed three individual in vivo treatment experiments with ajoene in the mouse model of pulmonary infection using the P. aeruginosa PAO1. BALB/c mice were intracheally challenged (at day 0) with alginate beads containing 1.5×10^8 CFU/ml P. aeruginosa. The two groups of mice were either untreated (placebo) or treated with ajoene 25 μg/g mouse once a day. The mice were given two days of prophylactic treatment or placebo prior to bacterial challenge. Treatment was continued for three days. […] When combining the experiments a significant difference on day three was seen (p<0.002) with a 500 fold difference in clearance between the groups (FIG. 7). This is concordant with the results obtained by Bjarnsholt et al (2005) in a similar lung infection model in with raw garlic extract was used as treatment [T. Bjarnsholt et al., Microbiology, 2005, 151, p. 3873-3880].
This highlights that a synthesis providing a sufficiently pure “crude” ajoene product is essential in order to avoid the use of HPLC purification, as this step has a detrimental effect on biological activity. […] (E,Z) ajoene having an E:Z ratio of 1:4 was used.

P. aeruginosa cultures = experiment: Growth inhibitory effect on exponential growing cultures; type: cell-based; details: 10, 20, 40 and 80 μg/ml ajoene; E:Z 1:4
Experimental: (§1) DNA microarray analysis was used to identify genes regulated by ajoene treatment. As a reference we have used the QS regulon previously identified by Hentzer et al., [M. Hentzer et al., EMBO J., 2003, 22, p. […] Exponential growing P. aeruginosa cultures were treated with the following four concentrations of ajoene; 10 μg/ml (42.7 μM), 20 μg/ml (85.4 μM), 40 μg/ml (170.8 μM) and 80 μg/ml (341.6 μM). (E,Z) ajoene having an E:Z ratio of 1:4 was used. […] The samples were retrieved at an OD600 nm of 2.0 (optical density) because previous investigations have shown the highest activity among the QS genes at that cell density. Gene expression of the treated cultures was compared to an untreated control.

P. aeruginosa = details: E:Z=1:4 isomer used; cited from earlier work
Gram positive bacteria = details: E:Z=1:4 isomer used; cited from earlier work
[2] = system: biofilms of P. aeruginosa PAO1; experiment: In vitro flow cell biofilm killing, live dead stains and CSLM; type: cell-based; details: tobramycin or ajoene only
Experimental: Dead cells are stained with the DNA stain PI (Dark grey/black). The biofilm were visualized with CSLM. C) Implant model treated with ajoene and tobramycin.
3873-3880]. It was however unknown what was the active ingredient in the garlic extract. Thus. biofilms of P. aeruginosa strain were either grown in the presence or absence of 100 μg/ml ajoene. At day three the biofilms were treated with 10 μg/ml tobramycin for 24 hours. […] 10 μg/ml tobramycin was therefore chosen for the present study.

PA4141 = experiment: DNA microarray, gene expression in ajoene treated P. aeruginosa cultures; type: cell-based; details: E:Z 1:4, OD600 2.0
Experimental: as §1

P. aeruginosa genes = experiment: DNA microarray, number of genes regulated by ajoene treatment; type: cell-based
Experimental: as §1
In general, there was only a small number of genes that were down regulated more than 5 fold by the four different concentrations of ajoene; 0 genes at 10 μg/ml ajoene, 0 genes at 20 μg/ml ajoene, 2 genes at 40 μg/ml ajoene and 11 genes at 80 μg/ml ajoene. […] According to our experimental settings, expression of 10 out of the total number of 163 QS controlled P. aeruginosa genes (according to Hentzer et al., [M. Hentzer et al., EMBO J., 2003, 22, p. 3803-3815]) was down regulated by the ajoene treatments. A concentration of 80 μg/ml ajoene affects expression of 11 out of a total of 5570 P. aeruginosa genes. Ajoene is therefore highly specific for a subclass of QS controlled genes (Table 3).

Gram negative bacteria = details: E:Z=1:4 isomer used; cited from earlier work
[3] = Biological activity after further purification, assays as described in the examples; details: after column chromatography further purified, e.g. reverse phase HPLC; or isolated pure isomers
Description: The purity of (E,Z)-ajoene after the above procedure may be 95-99.5%, such as 97-99.5%, 98-99.5%, 99-99.5% such as about 99.5%. […] This was also found when isolating pure (E)-ajoene and/or pure (Z)-ajoene, e.g. using HPLC. It is speculated that small amounts of ajoene derived chemistry, i.e. compounds related to ajoene, such as less than 5%, 3%, 2%, 1%, such as less than 0.5% may be highly important in the stabilisation of (E,Z)-ajoene and derivatives, towards degradation, e.g. oxidation, reduction and or cleavage, both in vitro but importantly also in vivo.

## C=CCSSC=CC[S+]([O-])CC=C (stereo not drawn) [ajoene, (E,Z)-4,5,9-trithiadodeca-1,6,11-triene-9-oxide]
[1]; 20 μg/ml ajoene, OD600 nm of 2.0
  rhamnolipid content compared to the untreated culture: approximately ⅓
[1]; 40 μg/ml ajoene
  rhamnolipid content: below the detection level
[1]; 80 μg/ml ajoene
  rhamnolipid present in the sample: almost no detectable rhamnolipid
  rhamnolipid content: below the detection level
P. aeruginosa PAO1; day three, 25 μg/g mouse once a day subcutaneous, two days prophylactic, three experiments combined
  difference in clearance between treated and placebo groups: 500 fold
P. aeruginosa PAO1; mouse, in vivo
  tolerability of the administered dosage: tolerated well
P. aeruginosa cultures
  growth inhibitory effects: do not exert any growth inhibitory effects
P. aeruginosa
  growth inhibitory effect on P. aeruginosa: no measurable growth inhibitory effect
Gram positive bacteria
  growth inhibition of Gram positive bacteria: strong growth inhibitor
[2]
  killing of the biofilm bacteria, single agent: no or only minor killing
PA4141; [Ajoene] 10 μg/ml
  fold change in gene expression compared to an untreated control: −1.0 fold
PA4141; [Ajoene] 20 μg/ml
  fold change in gene expression compared to an untreated control: −1.1 fold
PA4141; [Ajoene] 40 μg/ml
  fold change in gene expression compared to an untreated control: −1.3 fold
PA4141; [Ajoene] 80 μg/ml
  fold change in gene expression compared to an untreated control: −5.4 fold
P. aeruginosa genes; 10 μg/ml ajoene
  number of genes down regulated more than 5 fold: 0 genes
P. aeruginosa genes; 20 μg/ml ajoene
  number of genes down regulated more than 5 fold: 0 genes
P. aeruginosa genes; 40 μg/ml ajoene
  number of genes down regulated more than 5 fold: 2 genes
P. aeruginosa genes; 80 μg/ml ajoene, out of a total of 5570 P. aeruginosa genes
  number of genes down regulated more than 5 fold: 11 genes
P. aeruginosa genes; out of the total number of 163 QS controlled genes (Hentzer et al.)
  number of QS controlled P. aeruginosa genes down regulated by the ajoene treatments: 10 genes
Gram negative bacteria
  inhibitory effect on Gram negative bacteria: varied inhibitory effect
[3]
  biological activity after further purification: lost all or parts of its biological activity
